Laboratory results from ChEMBL document CHEMBL1201862, “PubChem BioAssay data set” (2004).
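In this assay, cells in 96-well plates receive the compound at five concentrations for 48 hours. Endpoints are linearly interpolated between the surrounding concentrations. GI50: concentration for 50% inhibition of growth.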 The source made the active and inactive calls. No stated cut-off is given here; in the data, active = GI50 up to about 1.1 µM and inactive = higher.

Key:
Test in all cases: NCI-60 cell line screen, 48 h
CCRF-CEM = tested on: CCRF-CEM
LOX IMVI = tested on: LOX IMVI
RXF 393 = tested on: RXF 393
SNB-75 = tested on: SNB-75
SK-MEL-2 = tested on: SK-MEL-2
HOP-92 = tested on: HOP-92
U-251 = tested on: U-251
A549 = tested on: A549
SN12C = tested on: SN12C
OVCAR-4 = tested on: OVCAR-4
T47D = tested on: T47D
SF-268 = tested on: SF-268
Malme-3M = tested on: Malme-3M
MDA-MB-435 = tested on: MDA-MB-435
KM12 = tested on: KM12
OVCAR-8 = tested on: OVCAR-8
HOP-62 = tested on: HOP-62
UACC-62 = tested on: UACC-62
SK-MEL-5 = tested on: SK-MEL-5
MDA-N = tested on: MDA-N
TK-10 = tested on: TK-10
MDA-MB-231 = tested on: MDA-MB-231
SK-MEL-28 = tested on: SK-MEL-28
SNB-19 = tested on: SNB-19
Hs-578T = tested on: Hs-578T
K562 = tested on: K562
HCC 2998 = tested on: HCC 2998
A498 = tested on: A498
MOLT-4 = tested on: MOLT-4
UACC-257 = tested on: UACC-257
MCF7 = tested on: MCF7
EKVX = tested on: EKVX
NCI/ADR-RES = tested on: NCI/ADR-RES
HT-29 = tested on: HT-29
NCI-H522 = tested on: NCI-H522
SR = tested on: SR
CAKI-1 = tested on: CAKI-1
UO-31 = tested on: UO-31
COLO 205 = tested on: COLO 205
OVCAR-5 = tested on: OVCAR-5
SK-OV-3 = tested on: SK-OV-3
PC-3 = tested on: PC-3
M14 = tested on: M14
HCT-15 = tested on: HCT-15
SF-295 = tested on: SF-295
NCI-H23 = tested on: NCI-H23
ACHN = tested on: ACHN
BT-549 = tested on: BT-549
HCT-116 = tested on: HCT-116
SF-539 = tested on: SF-539
786-0 = tested on: 786-0
HL-60 = tested on: HL-60
DU-145 = tested on: DU-145
NCI-H226 = tested on: NCI-H226
IGROV-1 = tested on: IGROV-1
SW-620 = tested on: SW-620
NCI-H460 = tested on: NCI-H460

SMILES: COc1cc(C2S/C(=C/c3ccccc3)C(=O)N2c2ccc(NC(C)=O)cc2)cc(OC)c1OC (stereo unspecified)
- GI50 (CCRF-CEM): 0.319 µM (active)
- GI50 (LOX IMVI): 18.2 µM (inactive)
- GI50 (RXF 393): 17.5 µM (inactive)
- GI50 (SNB-75): 3.3 µM (inactive)
- GI50 (SK-MEL-2): 0.71 µM (active)
- GI50 (HOP-92): 20.2 µM (inactive)
- GI50 (U-251): 15.6 µM (inactive)
- GI50 (A549): 23.8 µM (inactive)
- GI50 (SN12C): 15.8 µM (inactive)
- GI50 (OVCAR-4): 19.3 µM (inactive)
- GI50 (T47D): 11.6 µM (inactive)
- GI50 (SF-268): 17.9 µM (inactive)
- GI50 (Malme-3M): 22 µM (inactive)
- GI50 (MDA-MB-435): 18.2 µM (inactive)
- GI50 (KM12): 14.1 µM (inactive)
- GI50 (OVCAR-8): 18.5 µM (inactive)
- GI50 (HOP-62): 30.4 µM (inactive)
- GI50 (UACC-62): 20 µM (inactive)
- GI50 (SK-MEL-5): 13.1 µM (inactive)
- GI50 (MDA-N): 19.3 µM (inactive)
- GI50 (TK-10): 37.2 µM (inactive)
- GI50 (MDA-MB-231): 14.2 µM (inactive)
- GI50 (SK-MEL-28): 30.8 µM (inactive)
- GI50 (SNB-19): 38.1 µM (inactive)
- GI50 (Hs-578T): 21.2 µM (inactive)
- GI50 (K562): 16 µM (inactive)
- GI50 (HCC 2998): 19.7 µM (inactive)
- GI50 (A498): 21.4 µM (inactive)
- GI50 (MOLT-4): 4.61 µM (inactive)
- GI50 (UACC-257): 37.2 µM (inactive)
- GI50 (MCF7): 23.9 µM (inactive)
- GI50 (EKVX): 9.71 µM (inactive)
- GI50 (NCI/ADR-RES): 23.4 µM (inactive)
- GI50 (HT-29): 13.2 µM (inactive)
- GI50 (NCI-H522): 10.1 µM (inactive)
- GI50 (SR): 18.9 µM (inactive)
- GI50 (CAKI-1): 18.8 µM (inactive)
- GI50 (UO-31): 24 µM (inactive)
- GI50 (COLO 205): 15.2 µM (inactive)
- GI50 (OVCAR-5): 28 µM (inactive)
- GI50 (SK-OV-3): 35.2 µM (inactive)
- GI50 (PC-3): 11.8 µM (inactive)
- GI50 (M14): 19.5 µM (inactive)
- GI50 (HCT-15): 15 µM
- GI50 (SF-295): 36.6 µM (inactive)
- GI50 (NCI-H23): 20 µM (inactive)
- GI50 (ACHN): 22.7 µM (inactive)
- GI50 (BT-549): 16.3 µM (inactive)
- GI50 (HCT-116): 12.7 µM (inactive)

SMILES: O=c1c(-c2ccccc2)nnc2n(Cc3ccccc3)c3ccccc3n12
- GI50 (CCRF-CEM): > 100 µM (inactive)
- GI50 (LOX IMVI): > 100 µM (inactive)
- GI50 (SF-539): 94.8 µM (inactive)
- GI50 (RXF 393): 95.1 µM (inactive)
- GI50 (SNB-75): > 100 µM (inactive)
- GI50 (SK-MEL-2): > 100 µM (inactive)
- GI50 (HOP-92): 28.6 µM (inactive)
- GI50 (786-0): > 100 µM (inactive)
- GI50 (U-251): > 100 µM (inactive)
- GI50 (A549): > 100 µM (inactive)
- GI50 (SN12C): > 100 µM (inactive)
- GI50 (HL-60): > 100 µM (inactive)
- GI50 (OVCAR-4): > 100 µM (inactive)
- GI50 (T47D): > 100 µM (inactive)
- GI50 (SF-268): > 100 µM (inactive)
- GI50 (Malme-3M): > 100 µM (inactive)
- GI50 (MDA-MB-435): > 100 µM (inactive)
- GI50 (KM12): > 100 µM (inactive)
- GI50 (DU-145): > 100 µM (inactive)
- GI50 (OVCAR-8): > 100 µM (inactive)
- GI50 (SK-MEL-5): > 100 µM (inactive)
- GI50 (MDA-N): > 100 µM (inactive)
- GI50 (TK-10): > 100 µM (inactive)
- GI50 (MDA-MB-231): > 100 µM (inactive)
- GI50 (SK-MEL-28): > 100 µM (inactive)
- GI50 (SNB-19): > 100 µM (inactive)
- GI50 (Hs-578T): > 100 µM (inactive)
- GI50 (HCC 2998): > 100 µM (inactive)
- GI50 (A498): > 100 µM (inactive)
- GI50 (MOLT-4): > 100 µM (inactive)
- GI50 (UACC-257): > 100 µM (inactive)
- GI50 (MCF7): > 100 µM (inactive)
- GI50 (EKVX): > 100 µM (inactive)
- GI50 (NCI/ADR-RES): > 100 µM (inactive)
- GI50 (HT-29): > 100 µM (inactive)
- GI50 (NCI-H522): 26.7 µM (inactive)
- GI50 (NCI-H226): 22.5 µM (inactive)
- GI50 (SR): > 100 µM (inactive)
- GI50 (CAKI-1): > 100 µM (inactive)
- GI50 (UO-31): > 100 µM (inactive)
- GI50 (COLO 205): > 100 µM (inactive)
- GI50 (OVCAR-5): > 100 µM (inactive)
- GI50 (M14): > 100 µM (inactive)
- GI50 (IGROV-1): > 100 µM (inactive)
- GI50 (HCT-15): > 100 µM
- GI50 (SF-295): > 100 µM (inactive)
- GI50 (NCI-H23): > 100 µM (inactive)
- GI50 (ACHN): > 100 µM (inactive)
- GI50 (SW-620): > 100 µM (inactive)
- GI50 (BT-549): > 100 µM (inactive)
- GI50 (HCT-116): > 100 µM (inactive)
- GI50 (NCI-H460): > 100 µM (inactive)
